Laboratory results taken from paper PMC5797708 (SLAS discovery : advancing life sciences R & D, 2017).
Like-named read-outs stand apart in the source and are kept apart here.

Assays:
pre-miR-21 [1] = conditions: previously shown; cited from earlier work
pre-miR-21 [2] = assay: cat-ELCCA for Dicer-mediated pre-miRNA maturation; format: biochemical; conditions: for hit in HTS for inhibition of Dicer-mediated pre-miR-21 maturation: primary and confirmation screens at 25 µM, CRCs from 3.3 to 120 µM

SMILES | hit in HTS for inhibition of Dicer-mediated pre-miR-21 maturation (pre-miR-21 [2]) | other results
[H]/N=C(/N)N[C@H]1[C@H](O)[C@@H](O)[C@H](O[C@@H]2O[C@@H](C)[C@](O)(C=O)[C@H]2O[C@@H]2O[C@@H](CO)[C@H](O)[C@@H](O)[C@@H]2NC)[C@@H](N/C(N)=N\[H])[C@@H]1O [streptomycin] | – | inhibition of Dicer-mediated pre-miR-21 maturation (pre-miR-21 [1]): do not inhibit
NC[C@H]1O[C@H](O[C@H]2[C@H](O)[C@@H](O[C@H]3O[C@H](CO)[C@@H](O)[C@H](N)[C@H]3O)[C@H](N)C[C@@H]2N)[C@H](O)[C@@H](O)[C@@H]1O [kanamycin] | – | inhibition of Dicer-mediated pre-miR-21 maturation (pre-miR-21 [2]; data not shown): do not inhibit
C=C1c2c(Cl)ccc(O)c2C(=O)C2=C(O)[C@]3(O)C(=O)C(C(N)=O)=C(O)[C@@H](N(C)C)[C@@H]3[C@@H](O)[C@H]12 [meclocycline] | emerged as hits | –
CN(C)c1ccc(O)c2c1C[C@H]1C[C@H]3[C@H](N(C)C)C(O)=C(C(N)=O)C(=O)[C@@]3(O)C(O)=C1C2=O [minocycline] | emerged as hits | –
C=C1c2cccc(O)c2C(=O)C2=C(O)[C@]3(O)C(=O)C(C(N)=O)=C(O)[C@@H](N(C)C)[C@@H]3[C@@H](O)[C@H]12 [methacycline] | emerged as hits | –
